Experimental findings from patent US12060432B2, “Combination therapies with anti-CD38 antibodies” (Janssen Biotech, Inc., priority 2014, dated 2024) are described below.

One assay has as its system SU-DHL-6 cells. Kind of assay: SU-DHL-6 cell line based NHL-DLBCL model: daratumumab alone or with CHOP. It is filed as in vivo, NOD SCID mice. As for the experimental part: 5×10^6 SU-DHL-6 cells were implanted into NOD SCID mice and treatment initiated when the main tumor size reached approximately 154 mm^3. Daratumumab was administered at 10 mg/kg once a week for four weeks. CHOP was administered daily on days 0-5 using following doses: cyclophosphoamide (CTX): 5 mg/kg i.v.; doxorubicin: 0.5 mg/kg i.v; vincristine: 0.08 mg/kg i.v., prednisone: 0.03 mg/kg p.o. Tumor size was plotted as Mean±SEM.
SU-DHL-6 cell line based NHL-DLBCL model was utilized to study the efficacy of daratumumab alone or in combination with CHOP.
The SU-DHL-6 cells were maintained separately in vitro in RPMI1640 medium supplemented with 20% fetal bovine serum (v/v) at 37° C. in an atmosphere of 5% CO2 in air. The cells were routinely subcultured twice weekly. The cells growing in an exponential growth phase were harvested and counted for tumor inoculation. NOD SCID mice were γ-irradiated (200 rads) at 24 h before injection. Each mouse was inoculated subcutaneously at the right flank with SU-DHL-6 tumor cells (5×10^6) in 0.1 ml of PBS with matrigel (1:1) for tumor development. The treatments were started when the tumor size reaches approximately 154 mm^3. The date of tumor cell inoculation is denoted as day 0. Tumor sizes were measured twice weekly and % TGI values calculated as described in Example 1.
Animals were divided in four treatment groups and were administered vehicle, daratumumab, CHOP or daratumumab in combination with CHOP at dosages as described in Table 3.

The test system of the next assay is NAMALWA cells. Kind of assay: NAMALWA model of Burkitt's lymphoma: daratumumab alone or with CHOP. The assay is classed as in vivo, NOD SCID mice. As for the experimental part: 2×10^5 NAMALWA cells in matrigel were implanted into NOD SCID mice and treatment initiated when the main tumor size reached approximately 189 mm^3. Daratumumab was administered at 10 mg/kg once a week for three weeks. CHOP was administered daily on days 0-5 using following doses: cyclophosphoamide (CTX): 5 mg/kg i.v.; doxorubicin: 0.5 mg/kg i.v; vincristine: 0.08 mg/kg i.v., prednisone: 0.03 mg/kg p.o. Tumor volume was measured every three days. The Y-axis represents tumor volume±SEM
As a model for Burkitt's lymphoma, NAMALWA cells were utilized to study the efficacy of daratumumab alone or in combination with CHOP.
Namalwa cells were maintained in vitro in RPMI 1640 medium supplemented with fetal bovine serum (10% v/v), and L-glutamine (2 mM) at 37° C. in an atmosphere of 5% CO2 in air. The cells were routinely subcultured twice weekly by trypsin-EDTA treatment. The cells growing in an exponential growth phase were harvested and counted for tumor inoculation. The mice were injected with 2×10^5 Namalwa cells in 0.1 ml of PBS with matrigel (1:1) subcutaneously and the treatments were started when the mean tumor size reached 189 mm^3. The date of tumor cell inoculation is denoted as day 0. The major endpoint was to see if the tumor growth can be delayed or tumor-bearing mice can be cured. Tumor sizes were measured twice weekly and % TGI values calculated as described in Example 1.
Animals were divided in four treatment groups and were administered vehicle (isotype control), daratumumab, CHOP or daratumumab in combination with CHOP at dosages as described in Table 2.

The subject of assay [1] is ST1361 NHL-DLBCL (diffuse large B-cell lymphoma) PDX (patient derived xenograft) model. Kind of assay: Patient-derived DLBCL xenograft ST1361: daratumumab alone or with CHOP or R-CHOP. It is filed as in vivo, SCID/Beige mice. Particulars: for % TGI (percent tumor growth inhibition): up to day 31, versus isotype control. As for the experimental part: Resected DLBCL tumors were implanted in SCID/Beige mice. […] Daratumumab was administered at 20 mg/kg once a week for three weeks. CHOP and R-CHOP were administered once on day 0 except prednisone was administered on days 0-4 using the following regimens: CHOP: (cyclophosphoamide (CTX): 30 mg/kg i.v.; doxorubicin: 2.5 mg/kg i.v; vincristine: 0.4 mg/kg i.v); prednisone: 0.15 mg/kg p.o; R-CHOP: rituximab 20 mg/kg i.p. DAY 0. Tumor volume was measured every three days. The Y-axis represents tumor volume±SEM.
ST1361 is a NHL-DLBCL (diffuse large B-cell lymphoma) PDX (patient derived xenograft) model originating from a person chemo-naïve prior to metastatic sample collection.
Tumors were implanted in immunocompromised mice between 5-8 weeks of age. […] Daratumumab was dosed at 20 mg/kg once a week for 3 weeks. CHOP and R-CHOP at the concentrations described below were dosed once on day 0. CHOP (cyclophosphoamide: 30 mg/kg; doxorubicin: 2.5 mg/kg; vincristine: 0.4 mg/kg)-IV DAY 0; prednisone: 0.15 mg/kg DAYS 0-4; R-CHOP: rituximab 20 mg/kg-IP DAY 0. Beginning Day 0, tumor volume was measured twice weekly by digital caliper and data including individual and mean estimated tumor volumes (Mean TV±SEM) recorded for each group. The study was used to measure tumor growth inhibition until the control group was terminated and then continued as a survival study to evaluate the duration of daratumumab efficacy.
For the study, beginning Day 0, tumor dimensions were measured twice weekly by digital caliper and data including individual and mean estimated tumor volumes (mean TV±SEM) recorded for each group.

Consider “Daratumumab: anti-CD38 antibody, IgG1/κ; VH SEQ ID NO: 4, VL SEQ ID NO: 5; heavy chain SEQ ID NO: 12, light chain SEQ ID NO: 13”, for which the Tumor growth delay in the assay with SU-DHL-6 cells (at tumor size of 1,500 mm^3) was 3 days; with NAMALWA cells (at tumor size of 2,303 mm^3) it was 2 days. For the same substance, the T/C value in the assay with SU-DHL-6 cells (day 32 post tumor inoculation) turned out to be 45.45%; in the assay with NAMALWA cells (day 26 post tumor inoculation), 70.46%. In addition, the “Antitumor activity in tumor size” value is listed as “significant antitumor activity” in the assay with SU-DHL-6 cells (day 32 post tumor inoculation, versus vehicle) and “significant antitumor activity” in the assay with NAMALWA cells (day 26 post tumor inoculation, versus vehicle). Besides, the Mean tumor size is on record as 1,946 mm^3 in the assay with SU-DHL-6 cells (day 32 post tumor inoculation, daratumumab 10 mg/kg QW x 4, CHOP QD x 5) and 3,017 mm^3 with NAMALWA cells (day 26 post tumor inoculation, daratumumab 10 mg/kg QW x 3, CHOP QD x 5). For the same substance, the “Mean tumor volume (mm^3) ± SEM” value in assay [1] (day 31, daratumumab 20 mg/kg once a week for 3 weeks, CHOP/R-CHOP once on day 0, prednisone days 0-4, day 0 volume 145-146 mm^3) turned out to be 744 ± 236 mm^3. In addition, the figures for the “% TGI (percent tumor growth inhibition)” value in assay [1] and in assay [1] (listed as daratumumab) were 71% and approximately 71%, respectively.
